The source of these data is patent US20240383852A1, “ANTI-VIRAL COMPOUNDS” (INFEX Therapeutics Limited, priority 2021, published 2024).

In one data set the target is T1, SARS-CoV-2 PLpro (Severe acute respiratory syndrome coronavirus 2, UniProt P0DTD1).
T1 construct: containing 60 nM papain-like protease
The data set is described as follows: biochemical. Particulars: 60 nM papain-like protease, 50 μM Z-RLRGG-AMC, pH 7.5, 37° C.; read-out: SARS-CoV-2 PLpro IC50.

In data set [1] the test system is human Hep G2 cells (ATCC HB-8065). The data set is described as follows: Cytotoxicity in Hep G2 cells (CellTiter-Glo). It is filed as cell-based. The following applies: Hep G2 cells, 100 μM test article, 24-hour exposure.

The structures appear in SMILES notation. Counter-ions that a name gives are not always drawn.

As for `Cc1ccc(N2CCN(C)CC2)cc1C(=O)N[C@H](C)c1ccc(F)c(-c2ccccc2)c1` [Example 218, N-[(1R)-1-(4-Fluoro-3-phenyl-phenyl)ethyl]-2-methyl-5-(4-methylpiperazin-1-yl)benzamide], the IC50 (as a rule, the concentration at which inhibition is half-maximal) on SARS-CoV-2 PLpro is below 2 µM. For the same compound, the “% Cell Viability” value in data set [1] amounted to 1.5%.

Turning to `C[C@@H](NC(=O)c1cc(N2CCN(C)CC2)ccc1Cl)c1cccc2ccccc12` [Example 130, 2-Chloro-5-(4-methylpiperazin-1-yl)-N-[(1R)-1-(1-naphthyl)ethyl]benzamide], at SARS-CoV-2 PLpro, the half-maximal inhibitory concentration (IC50) was below 10 µM. Further, the “% Cell Viability” value in data set [1] is 1.0%.

Consider `Cc1ccc(N2CCN(C)CC2)cc1C(=O)N[C@H](C)c1cccc(-c2cccc(CN(C)C)c2)c1` [Example 68, N-[(1R)-1-[3-[3-[(Dimethylamino)methyl]phenyl]phenyl]ethyl]-2-methyl-5-(4-methylpiperazin-1-yl)benzamide Dihydrochloride Salt], for which the IC50 at SARS-CoV-2 PLpro was below 2 µM. Moreover, the “% Cell Viability” value in data set [1] was found to be 48.9%.

As to `Cc1ccc(N2CCN(C)CC2)cc1C(=O)N[C@H](C)c1cccc(C(=O)NC[C@@H](O)CO)c1` [Example 308, N-[(1R)-1-[3-[[(2R)-2,3-Dihydroxypropyl]carbamoyl]phenyl]ethyl]-2-methyl-5-(4-methylpiperazin-1-yl)benzamide hydrochloride salt], the IC50 at SARS-CoV-2 PLpro was below 10 µM. For the same compound, the “% Cell Viability” value in data set [1] came to 126.8%.

Consider `Cc1ccc(N2CCN(C)CC2)cc1C(=O)N[C@H](C)c1cccc(-c2cccc(N3CCNCC3)c2)c1` [Example 74, 2-Methyl-5-(4-methylpiperazin-1-yl)-N-[(1R)-1-[3-(3-piperazin-1-ylphenyl)phenyl]ethyl]benzamide], for which, on SARS-CoV-2 PLpro, the IC50 is below 2 µM. For the same compound, the “% Cell Viability” value in data set [1] worked out at 0.6%.

As to `COc1ccc([C@@H](C)NC(=O)c2cc(N3C[C@H]4C[C@@H]3CN4C)ccc2C)cc1-c1csc(C(=O)NC2CC2)c1` [Example 287, N-Cyclopropyl-4-[2-methoxy-5-[(1R)-1-[[2-methyl-5-[(1R,4R)-5-methyl-2,5-diazabicyclo[2.2.1]heptan-2-yl]benzoyl]amino]ethyl]phenyl]thiophene-2-carboxamide], the IC50 on SARS-CoV-2 PLpro was below 2 µM. Besides, the “% Cell Viability” value in data set [1] stood at 43.4%.

Regarding `Cc1ccc(N2CCN(C)CC2)cc1C(=O)N[C@H](C)c1cccc(-c2cc(CO)cc(CO)c2)c1` [Example 81, N-[(1R)-1-[3-[3,5-Bis(hydroxymethyl)phenyl]phenyl]ethyl]-2-methyl-5-(4-methylpiperazin-1-yl)benzamide], the IC50 on SARS-CoV-2 PLpro was below 2 µM. Moreover, the “% Cell Viability” value in data set [1] is 94.4%.

As for `Cc1ccc(N2CCN(C)CC2)cc1C(=O)N[C@H](C)c1cc(-c2cnn(C)c2)cs1` [Example 232, 2-Methyl-5-(4-methylpiperazin-1-yl)-N-[(1R)-1-[4-(1-methylpyrazol-4-yl)-2-thienyl]ethyl]benzamide], the IC50 on SARS-CoV-2 PLpro was below 5 µM. Also, the “% Cell Viability” value in data set [1] is given as 75.2%.

With `COc1ccc([C@@H](C)NC(=O)c2cc(N3CCN(C)CC3)ccc2C)cc1F` [Example 185, N-[(1R)-1-(3-Fluoro-4-methoxy-phenyl)ethyl]-2-methyl-5-(4-methylpiperazin-1-yl)benzamide], the IC50 at SARS-CoV-2 PLpro was below 10 µM. Moreover, in data set [1], the “% Cell Viability” value is given as 5.6%.

For the compound `COc1ccc([C@@H](C)NC(=O)c2cc(N3CC4CN(C)CC4C3)ccc2C)cc1-c1cnn(C)c1` (stereo partly drawn) [Example 240, N-[(1R)-1-[4-Methoxy-3-(1-methylpyrazol-4-yl)phenyl]ethyl]-2-methyl-5-(2-methyl-1,3,3a,4,6,6a-hexahydropyrrolo[3,4-c]pyrrol-5-yl)benzamide], the IC50 at SARS-CoV-2 PLpro was below 2 µM. For the same compound, in data set [1], the “% Cell Viability” value is 64.3%.

Turning to `Cc1ccc(N2CCN(CCC(=O)O)CC2)cc1C(=O)N[C@H](C)c1cccc(-c2cccc(CO)c2)c1` [Example 170, 3-[4-[3-[[(1R)-1-[3-[3-(Hydroxymethyl)phenyl]phenyl]ethyl]carbamoyl]-4-methyl-phenyl]piperazin-1-yl]propanoic Acid], the IC50 on SARS-CoV-2 PLpro was below 5 µM. The “% Cell Viability” value in data set [1] was 107.9%.

`COc1cc(OC)c([C@@H](C)NC(=O)c2cc(N3CCN(C)CC3)ccc2C)cc1Br` [Example 202, N-[(1R)-1-(5-Bromo-2,4-dimethoxy-phenyl)ethyl]-2-methyl-5-(4-methylpiperazin-1-yl)benzamide]: on SARS-CoV-2 PLpro, the IC50 is below 5 µM. The “% Cell Viability” value in data set [1] was 72.5%.

Regarding `Cc1ccc(N2CCN(CC(=O)N(C)C)CC2)cc1C(=O)N[C@H](C)c1cccc(-c2cnn(C)c2)c1` [Example 113, 5-[4-[2-(Dimethylamino)-2-oxo-ethyl]piperazin-1-yl]-2-methyl-N-[(1R)-1-[3-(1-methylpyrazol-4-yl)phenyl]ethyl]benzamide], the IC50 on SARS-CoV-2 PLpro was below 20 µM. Moreover, in data set [1], the “% Cell Viability” value amounted to 72.7%.

Consider `Cc1ccc(C2CC2)cc1C(=O)N[C@H](C)c1cccc2ccccc12` [Example 4, 5-Cyclopropyl-2-methyl-N-[(1R)-1-(1-naphthyl)ethyl]benzamide], for which the IC50 at SARS-CoV-2 PLpro was below 5 µM. In addition, the “% Cell Viability” value in data set [1] was 56.8%.

As to `COCCN1CCN(c2ccc(C)c(C(=O)N[C@H](C)c3cccc(-c4cnn(C)c4)c3)c2)CC1` [Example 114, 5-[4-(2-Methoxyethyl)piperazin-1-yl]-2-methyl-N-[(1R)-1-[3-(1-methylpyrazol-4-yl)phenyl]ethyl]benzamide], the IC50 on SARS-CoV-2 PLpro was below 5 µM. The “% Cell Viability” value in data set [1] came out at 59.0%.

As to `Cc1ccc(N2CCN(C)CC2)cc1C(=O)N[C@H](C)c1ccc(-c2ccc(CO)cc2)cc1` [Example 54, N-[(1R)-1-[4-[4-(Hydroxymethyl)phenyl]phenyl]ethyl]-2-methyl-5-(4-methylpiperazin-1-yl)benzamide], on SARS-CoV-2 PLpro, the IC50 is below 10 µM. The “% Cell Viability” value in data set [1] is 76.0%.

Consider `Cc1ccc(N2CCN(C)CC2)cc1C(=O)N[C@H](C)c1ccc(F)c(Br)c1` [Example 187, N-[(1R)-1-(3-Bromo-4-fluoro-phenyl)ethyl]-2-methyl-5-(4-methylpiperazin-1-yl)benzamide], for which the IC50 at SARS-CoV-2 PLpro was below 2 µM. Moreover, the “% Cell Viability” value in data set [1] turned out to be 44.0%.

For the compound `COc1cc(Br)cc([C@@H](C)NC(=O)c2cc(N3CC4CN(C)CC4C3)ccc2C)c1` (stereo partly drawn) [Example 199, N-[(1R)-1-(3-Bromo-5-methoxy-phenyl)ethyl]-2-methyl-5-(2-methyl-1,3,3a,4,6,6a-hexahydropyrrolo[3,4-c]pyrrol-5-yl)benzamide], the IC50 on SARS-CoV-2 PLpro is below 2 µM. The “% Cell Viability” value in data set [1] was 0.7%.

Consider `COc1ccc([C@@H](C)NC(=O)c2cc(N3CCCN(C)CC3)ccc2C)cc1OC` [Example 13, N-[(1R)-1-(3,4-Dimethoxyphenyl)ethyl]-2-methyl-5-(4-methyl-1,4-diazepan-1-yl)benzamide], for which, on SARS-CoV-2 PLpro, the IC50 is below 10 µM. Further, in data set [1], the “% Cell Viability” value came to 103.8%.

Regarding `COc1cc(-c2cnn(C)c2)cc([C@@H](C)NC(=O)c2cc(C3CCNCC3)ccc2C)c1` [Example 303, N-[(1R)-1-[3-Methoxy-5-(1-methylpyrazol-4-yl)phenyl]ethyl]-2-methyl-5-(4-piperidyl)benzamide], the IC50 on SARS-CoV-2 PLpro was below 2 µM. Moreover, in data set [1], the “% Cell Viability” value came out at 73.2%.

Turning to `COc1cc(-c2cn(C)nc2C)cc([C@@H](C)NC(=O)c2cc(N3CCN(CC4CC4)CC3)ccc2C)c1` [Example 255, 5-[4-(Cyclopropylmethyl)piperazin-1-yl]-N-[(1R)-1-[3-(1,3-dimethylpyrazol-4-yl)-5-methoxy-phenyl]ethyl]-2-methyl-benzamide hydrochloride salt], the IC50 on SARS-CoV-2 PLpro was below 2 µM. The “% Cell Viability” value in data set [1] is given as 70.3%.

In the case of `Cc1ccc(N2CCN(CC3CC3)CC2)cc1C(=O)N[C@H](C)c1cccc2ccccc12` [Example 118, 5-[4-(Cyclopropylmethyl)piperazin-1-yl]-2-methyl-N-[(1R)-1-(1-naphthyl)ethyl]benzamide], the concentration for half-maximal inhibition (IC50) at SARS-CoV-2 PLpro is below 2 µM. For the same compound, the “% Cell Viability” value in data set [1] turned out to be 6.6%.

As for `Cc1ccc(N2CCN(C)CC2)cc1C(=O)N[C@H](C)c1cccc(C(=O)NCC(N)=O)c1` [Example 310, N-[(1R)-1-[3-[(2-Amino-2-oxo-ethyl)carbamoyl]phenyl]ethyl]-2-methyl-5-(4-methylpiperazin-1-yl)benzamide hydrochloride salt], at SARS-CoV-2 PLpro, the IC50 is below 5 µM. The “% Cell Viability” value in data set [1] was found to be 124.4%.

`Cc1ccc(N2CCC(N)CC2)cc1C(=O)N[C@H](C)c1cccc2ccccc12` [Example 16, 5-(4-Amino-1-piperidyl)-2-methyl-N-[(1R)-1-(1-naphthyl)ethyl]benzamide]: the IC50 at SARS-CoV-2 PLpro was below 5 µM. Besides, in data set [1], the “% Cell Viability” value is given as 1.1%.

On to `Cc1ccc(N2CCN(C)CC2)cc1C(=O)N[C@H](C)c1cccc(-c2cncnc2)c1` [Example 59, 2-Methyl-5-(4-methylpiperazin-1-yl)-N-[(1R)-1-(3-pyrimidin-5-ylphenyl)ethyl]benzamide], for which the IC50 on SARS-CoV-2 PLpro is below 10 µM. Further, the “% Cell Viability” value in data set [1] was found to be 86.0%.

As for `Cc1ccc(N2CCN(C)CC2)cc1C(=O)N[C@H](C)c1ccc(OCc2ccccc2)c(-c2cnn(C)c2)c1` [Example 249, N-[(1R)-1-[4-Benzyloxy-3-(1-methylpyrazol-4-yl)phenyl]ethyl]-2-methyl-5-(4-methylpiperazin-1-yl)benzamide], the IC50 at SARS-CoV-2 PLpro was below 2 µM. Further, the “% Cell Viability” value in data set [1] is recorded as 0.5%.

`Cc1ccc(N2CCN(C)CC2)cc1C(=O)N[C@H](C)c1cccc(-c2ccc(C(=O)O)cc2)c1` [Example 41]: the IC50 on SARS-CoV-2 PLpro was below 5 µM. For the same compound, the “% Cell Viability” value in data set [1] was 110.1%.

Take `COc1cc(-c2cn(C)nc2C)cc([C@@H](C)NC(=O)c2cc(N3CCN4CCCC4C3)ccc2C)c1` (stereo partly drawn) [Example 256, 5-(3,4,6,7,8,8a-Hexahydro-1H-pyrrolo[1,2-a]pyrazin-2-yl)-N-[(1R)-1-[3-(1,3-dimethylpyrazol-4-yl)-5-methoxy-phenyl]ethyl]-2-methyl-benzamide]: the IC50 on SARS-CoV-2 PLpro is below 2 µM. Moreover, the “% Cell Viability” value in data set [1] worked out at 70.1%.
